In patent US20260027118A1, “COMPOSITIONS USEFUL FOR MODULATING SPLICING” (Skyhawk Therapeutics, Inc., priority 2022, published 2026):

Legend:
[1] = system: ATXN3 transcripts containing exon 4; experiment: ATXN3 Quantitative Splicing Assay (qPCR, E4E5 primers/probe); format: cell-based, Human; details: Homo sapiens; SK-N-MC cells, treated with compounds for 24 h, qPCR of transcripts containing exon 4
Method: Human neuroblastoma SK-N-MC cells were plated in 384-well plates at 20,000 cells/well. Twenty-four hours after plating, cells were treated with compounds for 24 h at appropriate concentrations ranging from 30.M to 0.6 nM (0.300 DMS0). Treated cells were lysed in 15 μL of lysis buffer, and cDNA was synthesized using the Fast Advanced Cells-to-Ct kit. Two μL of each cDNA was used in qPCR reactions to confirm the exon 4 skipped transcripts of ATXN3. A second set of primers/probe E4E5 was used to detect the transcripts containing exon 4. The third set of primers/probe E8E9 was used to detect total gene level of ATXN3. The qPCR reactions were prepared in 384-well plates in 10 μL volume, using TaqMan™ Fast Advanced Master Mix with primers and probes shown in the table below. Reactions were run in a Quant Studio 6 qPCR instrument with default settings.
The primers and probes are listed below in Table 4.

total ATXN3 protein = experiment: ATXN3 total protein assay (Mesoscale Discovery); format: cell-based, Human; details: SK-N-MC cells, 48 hours incubation, MSD assay
Method: Human neuroblastoma SK-N-MC cells were seeded at 10,000 cells/well in 384 well plates one day prior to compound treatment. The concentrations of compounds were tested at appropriate doses ranging from 30 μM to 0.6 nM. After incubation for 48 hours, the cells were lysed with 25 μL of lysis buffer containing protease inhibitors, and total ATXN3 protein levels were assessed by Mesoscale Discovery (MSD) assay developed with one pair of anti-ATXN3 antibodies. The capture and detect antibodies were raised in mouse and rabbit respectively. Anti-rabbit MSD-ST antibody was used for secondary antibody. ATXN3 recombinant protein was used for standards. The readouts were captured with 35 μL of MSD read buffer and multi-array 384-well high binding plates.

ATXN3-HiBiT protein = experiment: ATXN3 HiBiT assay (Nano Glo HiBiT luminescence); format: cell-based; details: Kelly-ATXN3-HiBiT cells, luminescence read out 48 h after addition of the compound
From the text: To monitor ATXN3 protein levels by luminescence, a Kelly-ATXN3-HiBiT cell line with homozygous knock-in of HiBiT at the C-terminus of the endogenous ATXN3 gene was used (knock-in of the HiBiT-tag coding sequence SEQ ID NO. 14: 5′[…]3′ into exon 11 of ATXN3 -position 1114 of ATXN3 RefSeq NM_004993.6). Manipulations of the Kelly-ATXN3-HiBiT cell line that result in downregulation of the ATXN3-HiBiT protein (through modulation of ATXN3-HiBiT pre-mRNA splicing) can be followed by monitoring the luminescence signal of the HiBiT tag using the Nano Glo HiBiT Lytic Detection System (Promega, #N3050). Kelly-ATXN3-HiBiT cells were maintained in RPMI 1640 w/Glutamax (Gibco, #61870010), 10% FBS (Sigma Aldrich, #F8687), 1% Penicillin/Streptomycin (Gibco, #15140-122) at 37° C., 5% CO2. To assess HiBiT-luminescence signal upon compound treatment, 2000 Kelly-ATXN3-HiBiT cells were seeded per well in 384 plate format. Compounds were added 24 h after seeding. ATXN3-HiBiT-luminescence signal was read out 48 h after addition of the compound using the Nano Glo HiBiT Lytic Detection System (Promega, #N3050) according to the manufacturer's instructions. To control for cell viability, an identically prepared sister plate was read out with the CellTiter-Glo® 2.0 Assay (Promega, #G9243) according to the manufacturer's instructions. Fold changes of ATXN3-HiBiT-luminescence and of CellTiter-Glo viability signals were calculated relative to a DMSO control condition.

Row | SMILES | IC50 [1] | IC50 (total ATXN3 protein) | EC50 (ATXN3-HiBiT protein)
1 | C[C@H](N)Cc1oc2c(NCc3cccs3)cc(Cl)nc2c1C#CC1CC1 [Compound 10, 2-[(S)-2-aminopropyl]-5-chloro-3-(2-cyclopropylethynyl)-7-thenylamino-1-oxa-4-azaindene] | 501 to 5000 nM | 501 to 5000 nM | 501 to 5000 nM
2 | CC#Cc1c(C[C@@H](N)[C@H](C)F)oc2c(NCc3ccccc3)cc(Cl)nc12 [Compound 11, 2-[(2R,3S)-2-amino-3-fluorobutyl]-7-benzylamino-5-chloro-3-(1-propynyl)-1-oxa-4-azaindene] | 0.01 to 100 nM | 101 to 500 nM | 0.01 to 100 nM
3 | CC#Cc1c(C[C@@H](N)[C@H](C)F)oc2c(NCc3nccs3)cc(Cl)nc12 [Compound 12, 2-[(2R,3S)-2-amino-3-fluorobutyl]-5-chloro-3-(1-propynyl)-7-{[(1,3-thiazol-2-yl)methyl]amino}-1-oxa-4-azaindene] | 0.01 to 100 nM | 101 to 500 nM | 0.01 to 100 nM
4 | CC#Cc1c(C[C@@H](N)C2CC(F)(F)C2)oc2c(NCc3cccs3)cc(Cl)nc12 [Compound 15, 2-[(R)-2-amino-2-(3,3-difluorocyclobutyl)ethyl]-5-chloro-3-(1-propynyl)-7-thenylamino-1-oxa-4-azaindene] | 501 to 5000 nM | 501 to 5000 nM | 501 to 5000 nM
5 | CCC#Cc1c(C[C@H](C)N)oc2c(NCc3cccs3)cc(Cl)nc12 [Compound 16, 2-[(S)-2-aminopropyl]-3-(1-butynyl)-5-chloro-7-thenylamino-1-oxa-4-azaindene] | 101 to 500 nM | 101 to 500 nM | 101 to 500 nM
6 | C[C@H](N)Cc1oc2c(NCc3cccs3)cc(Cl)nc2c1C#CCF [Compound 19, 2-[(S)-2-aminopropyl]-5-chloro-3-(3-fluoro-1-propynyl)-7-thenylamino-1-oxa-4-azaindene] | 101 to 500 nM | 101 to 500 nM | 101 to 500 nM
7 | CC#Cc1c(C[C@@H](N)COC)oc2c(NCc3cccs3)cc(Cl)nc12 [Compound 21, 2-[(R)-2-amino-3-methoxypropyl]-5-chloro-3-(1-propynyl)-7-thenylamino-1-oxa-4-azaindene] | 0.01 to 100 nM | 101 to 500 nM | 0.01 to 100 nM
8 | CCC#Cc1c(C[C@H](C)N)oc2c(NCc3ccco3)cc(Cl)nc12 [Compound 22, 2-[(S)-2-aminopropyl]-3-(1-butynyl)-5-chloro-7-(furfurylamino)-1-oxa-4-azaindene] | 101 to 500 nM | 501 to 5000 nM | 501 to 5000 nM
9 | CC#Cc1cc(NCc2cccs2)c2oc(C[C@@H](N)C3CC(F)(F)C3)c(C#CC)c2n1 [Compound 23, 2-[(R)-2-amino-2-(3,3-difluorocyclobutyl)ethyl]-3,5-bis(1-propynyl)-7-thenylamino-1-oxa-4-azaindene] | 5000 to 10000 nM | 10000 to 40000 nM | 501 to 5000 nM
10 | CC#Cc1c(C[C@@H](N)C2CC2)oc2c(NCc3cccs3)cc(Cl)nc12 [Compound 24, 2-[(R)-2-amino-2-cyclopropylethyl]-5-chloro-3-(1-propynyl)-7-thenylamino-1-oxa-4-azaindene] | 501 to 5000 nM | 501 to 5000 nM | 501 to 5000 nM
11 | CC#Cc1cc(NCc2cccs2)c2oc(C[C@@H](N)C3CC3)c(C#CC)c2n1 [Compound 25, 2-[(R)-2-amino-2-cyclopropylethyl]-3,5-bis(1-propynyl)-7-thenylamino-1-oxa-4-azaindene] | 10000 to 40000 nM | 10000 to 40000 nM | 5000 to 10000 nM
12 | C[C@H](N)Cc1oc2c(NCc3cccs3)cc(Cl)nc2c1C#CCO [Compound 26, 3-{2-[(S)-2-aminopropyl]-5-chloro-7-thenylamino-1-oxa-4-aza-3-indenyl}-2-propyn-1-ol] | 101 to 500 nM | 501 to 5000 nM | 101 to 500 nM
13 | C[C@H](N)Cc1oc2c(NCc3ccco3)cc(Cl)nc2c1C#CCO [Compound 27, 3-{2-[(S)-2-aminopropyl]-5-chloro-7-(furfurylamino)-1-oxa-4-aza-3-indenyl}-2-propyn-1-ol] | 501 to 5000 nM | 501 to 5000 nM | 501 to 5000 nM
14 | CC#Cc1cc(NCc2cccs2)c2oc(C[C@H](C)N)c(C#CC)c2n1 [Compound 28, 2-[(2S)-2-aminopropyl]-3,5-bis(prop-1-yn-1-yl)-N-(thiophen-2-ylmethyl)furo[3,2-b]pyridin-7-amine] | 501 to 5000 nM | 501 to 5000 nM | 501 to 5000 nM
15 | CC#Cc1c(C(F)(F)[C@H](C)N)oc2c(NCc3cccs3)nc(Cl)nc12 [Compound 33, 2-[(S)-2-amino-1,1-difluoropropyl]-5-chloro-3-(1-propynyl)-7-thenylamino-1-oxa-4,6-diazaindene] | 101 to 500 nM | 501 to 5000 nM | 101 to 500 nM
16 | CC#Cc1c(C[C@H](C)N)oc2c(NCc3cccs3)c(F)c(Cl)nc12 [Compound 36] | 501 to 5000 nM | 501 to 5000 nM | 501 to 5000 nM
17 | CC#Cc1c(C[C@@H](N)COC)oc2c(NCc3nccs3)cc(Cl)nc12 [Compound 38, 2-[(R)-2-amino-3-methoxypropyl]-5-chloro-3-(1-propynyl)-7-{[(1,3-thiazol-2-yl)methyl]amino}-1-oxa-4-azaindene] | 101 to 500 nM | 101 to 500 nM | 101 to 500 nM
18 | CC#Cc1c(C[C@@H](N)COC)oc2c(NCc3ccco3)cc(Cl)nc12 [Compound 39, 2-[(R)-2-amino-3-methoxypropyl]-5-chloro-7-(furfurylamino)-3-(1-propynyl)-1-oxa-4-azaindene] | 101 to 500 nM | 0.01 to 100 nM | 0.01 to 100 nM
19 | CC#Cc1c(C[C@@H](N)[C@H](C)F)oc2c(NCc3ccco3)nc(Cl)nc12 [Compound 41, 2-[(2R,3S)-2-amino-3-fluorobutyl]-5-chloro-7-(furfurylamino)-3-(1-propynyl)-1-oxa-4,6-diazaindene] | 0.01 to 100 nM | 0.01 to 100 nM | 0.01 to 100 nM
20 | [2H]C([2H])(OC)[C@H](N)Cc1oc2c(NCc3cccs3)cc(Cl)nc2c1C#CC [Compound 46, 2-[(R)-2-amino-3-methoxy(3,3- ^2H2)propyl]-5-chloro-3-(1-propynyl)-7-thenylamino-1-oxa-4-azaindene] | 0.01 to 100 nM | 101 to 500 nM | 0.01 to 100 nM
